According to publication PMC11889516 (Microbial Biotechnology, 2025):

T1: CYP116B234 (Rhodococcus globerulus, UniProt A0ABU4C0V8)
T1 construct: gene R3Q16_26300; full-length, N-terminal polyhistidine tag (GenBank MCE4265947.1)
T1 sequence (A0ABU4C0V8 1-767): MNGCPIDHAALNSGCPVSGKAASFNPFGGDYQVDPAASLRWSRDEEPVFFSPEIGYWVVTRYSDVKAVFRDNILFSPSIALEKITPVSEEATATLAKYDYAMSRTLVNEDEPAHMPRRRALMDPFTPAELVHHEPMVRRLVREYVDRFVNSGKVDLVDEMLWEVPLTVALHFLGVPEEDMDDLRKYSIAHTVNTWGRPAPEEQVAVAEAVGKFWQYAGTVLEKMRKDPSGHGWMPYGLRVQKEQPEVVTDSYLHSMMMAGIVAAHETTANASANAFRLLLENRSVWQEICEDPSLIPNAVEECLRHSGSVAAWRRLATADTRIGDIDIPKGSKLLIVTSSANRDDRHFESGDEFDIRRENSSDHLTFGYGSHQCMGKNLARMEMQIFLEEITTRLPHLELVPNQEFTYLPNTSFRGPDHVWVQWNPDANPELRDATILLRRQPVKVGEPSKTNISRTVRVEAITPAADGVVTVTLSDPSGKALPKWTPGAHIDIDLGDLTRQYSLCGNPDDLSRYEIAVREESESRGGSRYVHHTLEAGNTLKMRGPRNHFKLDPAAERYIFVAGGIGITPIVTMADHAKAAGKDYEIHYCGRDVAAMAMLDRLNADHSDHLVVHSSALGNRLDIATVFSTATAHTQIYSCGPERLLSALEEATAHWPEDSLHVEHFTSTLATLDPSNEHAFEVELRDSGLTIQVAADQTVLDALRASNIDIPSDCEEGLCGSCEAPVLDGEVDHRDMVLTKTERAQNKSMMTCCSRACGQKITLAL


Legend:
CYP116B234 = biological target: T1, CYP116B234; assay: UV-visible difference spectroscopy titration (heme spin-state shift); also NADPH consumption and turnover with purified enzyme; format: binding
purified protein [1] = substrate: NC(=O)C1=CN([C@@H]2O[C@H](COP(=O)(O)OP(=O)(O)OC[C@H]3O[C@@H](n4cnc5c(N)ncnc54)[C@H](OP(=O)(O)O)[C@@H]3O)[C@@H](O)[C@H]2O)C=CC1; assay: purified protein; format: biochemical, Rhodococcus globerulus; conditions: FMN, [2Fe-2S], heme reductase domain; varied: cofactor
purified protein [2] = substrate: NC(=O)C1=CN([C@@H]2O[C@H](COP(=O)(O)OP(=O)(O)OC[C@H]3O[C@@H](n4cnc5c(N)ncnc54)[C@H](O)[C@@H]3O)[C@@H](O)[C@H]2O)C=CC1; assay: purified protein; conditions: FMN, [2Fe-2S], heme reductase domain; varied: cofactor

Kd (CYP116B234) [nM]	Molecule	Km (purified protein [1]) [µM]	Km (purified protein [2]) [µM]
700 ± 100	O=C(O)Cc1ccccc1O [2-HPA, 2‐hydroxyphenylacetic acid]	–	–
1900 ± 100	O=C(O)CCc1ccccc1O [HPPA, 3‐(2‐hydroxyphenyl)propionic acid]	–	–
–	CYP116B234 (Rhodococcus globerulus) (protein, full-length, N-terminal polyhistidine tag (GenBank MCE4265947.1)) MNGCPIDHAALNSGCPVSGKAASFNPFGGDYQVDPAASLRWSRDEEPVFFSPEIGYWVVTRYSDVKAVFRDNILFSPSIALEKITPVSEEATATLAKYDYAMSRTLVNEDEPAHMPRRRALMDPFTPAELVHHEPMVRRLVREYVDRFVNSGKVDLVDEMLWEVPLTVALHFLGVPEEDMDDLRKYSIAHTVNTWGRPAPEEQVAVAEAVGKFWQYAGTVLEKMRKDPSGHGWMPYGLRVQKEQPEVVTDSYLHSMMMAGIVAAHETTANASANAFRLLLENRSVWQEICEDPSLIPNAVEECLRHSGSVAAWRRLATADTRIGDIDIPKGSKLLIVTSSANRDDRHFESGDEFDIRRENSSDHLTFGYGSHQCMGKNLARMEMQIFLEEITTRLPHLELVPNQEFTYLPNTSFRGPDHVWVQWNPDANPELRDATILLRRQPVKVGEPSKTNISRTVRVEAITPAADGVVTVTLSDPSGKALPKWTPGAHIDIDLGDLTRQYSLCGNPDDLSRYEIAVREESESRGGSRYVHHTLEAGNTLKMRGPRNHFKLDPAAERYIFVAGGIGITPIVTMADHAKAAGKDYEIHYCGRDVAAMAMLDRLNADHSDHLVVHSSALGNRLDIATVFSTATAHTQIYSCGPERLLSALEEATAHWPEDSLHVEHFTSTLATLDPSNEHAFEVELRDSGLTIQVAADQTVLDALRASNIDIPSDCEEGLCGSCEAPVLDGEVDHRDMVLTKTERAQNKSMMTCCSRACGQKITLAL	0.5 ± 0.4	240 ± 20
